Assay results published in patent US12611406B2, “Oxopiperazine derivatives for the treatment of cancer” (Inthera Bioscience AG, priority 2020, dated 2026).

Columns and labels:
[1] = 14-day daily oral repeated-dose DRF study in cynomolgus monkeys (mesylate salt); type: in vivo; conditions: for half-life / AUC(0-t) / Cmax / Tmax: cynomolgus monkey, plasma
Protocol: The objective of this exploratory study was to assess the TK profile of Compound 1 when repeatedly administered via the oral route to cynomolgus monkeys.
Compound 1 (mesylate salt) administration in this dose-range-finder study was intended once daily for up to 14 consecutive days by oral gavage to groups of naïve cynomolgus monkeys (n=1/sex/group) at dose levels of 0.5, 4, 8, or 12 mg Compound 1 per kg bodyweight and day, using a staggered approach. The vehicle was 0.5% Methylcellulose in water. The actual dose levels and durations of dosing were flexibly adapted according to signs of tolerability and PK: Group 1 animals were dosed at 0.5 mg/kg/day for 10 days and after a 4-day washout phase for additional 12 days at 4 mg/kg/days; Group 2 animals at 12 mg/kg/day for 11 days; Group 3 animals at 8 mg/kg for 10 (males) or 9 (females) days; and Group 4 animals at 8 mg/kg for 5 days, respectively, as summarized in Table 10.
The animals in the final group 4 were dosed orally once daily or 5 days with 8 mg/kg Compound 1 before a 9-day recovery phase was given.

[2] = Single dose intravenous and oral PK in Beagle dogs (citrate salt); type: in vivo; set-up: AUC(0-t) / AUC(0-inf): unit not given here; conditions: for AUC(0-inf) / AUC(0-t) / Tmax / half-life: both sexes, dog, whole blood
Protocol: This study determined the PK profile of Compound 1 following a single intravenous injection or oral gavage administration to Beagle dogs.
Compound 1 (citrate salt) was administered to two groups of dogs (n=1/sex/group) once by intravenous injection on Day 1, dose levels of 1 (Group 1) or 4 (Group 2) mg/kg/adm, and once by oral gavage on Day 3, dose levels of 3 (Group 1) and 12 (Group 2) mg/kg/adm, respectively. The vehicle was 5% dextrose in water for intravenous and aqueous citrate buffer solution for oral gavage administrations. Relative to each dosing on Days 1 and 3, series of blood samples were collected at pre-dose, 0.083, 0.25, 0.5, 1, 2, 4, and 7 hours for intravenous or at 0.25, 0.5, 1, 2, 4, 7, and 24 hours for oral gavage administration for analysis of Compound 1 concentrations in blood and subsequent calculation of PK parameters. Additional endpoints monitored during this study included mortality, clinical observations and body weight.

[3] = both sexes, po, 0.5 mg/kg, 0.5 mg/kg (Gr. 1), Day 1
[4] = both sexes, po, 8 mg/kg, 8 mg/kg (Gr. 3), Day 1
[5] = both sexes, po, 8 mg/kg, 8 mg/kg (Gr. 3), Day 5
[6] = both sexes, po, 8 mg/kg, 8 mg/kg (Gr. 4), Day 1
[7] = both sexes, po, 8 mg/kg, 8 mg/kg (Gr. 4), Day 5
[8] = both sexes, po, 12 mg/kg, 12 mg/kg (Gr. 2), Day 1
[9] = both sexes, po, 12 mg/kg, 12 mg/kg (Gr. 2), Day 7
[10] = po, 0.5 mg/kg, 0.5 mg/kg (Gr. 1), Day 7
[11] = po, 4 mg/kg, 4 mg/kg (Gr. 1), Day 1
[12] = po, 4 mg/kg, 4 mg/kg (Gr. 1), Day 5
[13] = po, 4 mg/kg, 4 mg/kg (Gr. 1), Day 11

## CC(C)C[C@@H]1NCCN([C@@H](CC(C)C)C(=O)N2CCC3(C[C@@H]2C)OCC(CN2CCCC2)CO3)C1=O (stereo partly drawn) [Compound 1, (S)-3-isobutyl-1-((S)-4-methyl-1-((S)-8-methyl-3-(pyrrolidin-1-ylmethyl)-1,5-dioxa-9-azaspiro[5.5]undecan-9-yl)-1-oxopentan-2-yl)piperazin-2-one]
[1]; both sexes, oral, in general, all groups, read-out: mean terminal plasma elimination half-lives
  half-life: 4.4 to 8.4 h
[1]; [3]
  AUC(0-t): 0.7 ng·h/mL
  Cmax: 0.24 ng/mL
  Tmax: 1.5 h
[1]; both sexes, po, 0.5 mg/kg, 0.5 mg/kg (Gr. 1), Day 1, read-out: T1/2 (converted)
  half-life: 4.9 h
[1]; both sexes, po, 4 mg/kg, 4 mg/kg (Gr. 1), Day 11, read-out: T1/2 (converted)
  half-life: 5.1 h
[1]; [4]
  AUC(0-t): 64.9 ng·h/mL
  Cmax: 21.7 ng/mL
  Tmax: 1 h
[1]; both sexes, po, 8 mg/kg, 8 mg/kg (Gr. 3), Day 1, read-out: T1/2 (converted)
  half-life: 4.6 h
[1]; [5]
  AUC(0-t): 92 ng·h/mL
  Cmax: 18.8 ng/mL
  Tmax: 1 h
[1]; both sexes, po, 8 mg/kg, 8 mg/kg (Gr. 3), Day 5, read-out: T1/2 (converted)
  half-life: 6.5 h
[1]; [6]
  AUC(0-t): 30.4 ng·h/mL
  Cmax: 8.95 ng/mL
  Tmax: 1 h
[1]; both sexes, po, 8 mg/kg, 8 mg/kg (Gr. 4), Day 1, read-out: T1/2 (converted)
  half-life: 5.4 h
[1]; [7]
  AUC(0-t): 51.3 ng·h/mL
  Cmax: 13.8 ng/mL
  Tmax: 1.5 h
[1]; both sexes, po, 8 mg/kg, 8 mg/kg (Gr. 4), Day 5, read-out: T1/2 (converted)
  half-life: 6.4 h
[1]; [8]
  AUC(0-t): 86 ng·h/mL
  Cmax: 31.2 ng/mL
  Tmax: 1 h
[1]; both sexes, po, 12 mg/kg, 12 mg/kg (Gr. 2), Day 1, read-out: T1/2 (converted)
  half-life: 6.6 h
[1]; [9]
  AUC(0-t): 214 ng·h/mL
  Cmax: 48.8 ng/mL
  Tmax: 1 h
[1]; both sexes, po, 12 mg/kg, 12 mg/kg (Gr. 2), Day 7, read-out: T1/2 (converted)
  half-life: 7.4 h
[1]; both sexes, po, after oral administration, all groups
  Tmax: 1 to 1.5 h
[1]; [10]
  AUC(0-t): 1.2 ng·h/mL
  Cmax: 0.18 ng/mL
  Tmax: 1 h
[1]; po, 0.5 mg/kg, 0.5 mg/kg (Gr. 1), Day 7, read-out: T1/2 (converted)
  half-life: 18.5 h
[1]; [11]
  AUC(0-t): 10.5 ng·h/mL
  Cmax: 2.95 ng/mL
  Tmax: 1 h
[1]; po, 4 mg/kg, 4 mg/kg (Gr. 1), Day 1, read-out: T1/2 (converted)
  half-life: 4.4 h
[1]; [12]
  AUC(0-t): 9.5 ng·h/mL
  Cmax: 2.3 ng/mL
  Tmax: 1 h
[1]; po, 4 mg/kg, 4 mg/kg (Gr. 1), Day 5, read-out: T1/2 (converted)
  half-life: 8.4 h
[1]; [13]
  AUC(0-t): 10.9 ng·h/mL
  Cmax: 3.06 ng/mL
  Tmax: 1 h
[1]; daily 0.5 and 4 mg/kg/day for 10 or 12 days
  tolerability: tolerated
[1]; daily 8 and 12 mg/kg/day for 10 days
  tolerability: not tolerated
[2]; IV 1 mg/kg
  Cl: 0.0057 (mg/kg)/(nmo/L)/h
  Vss: 0.004 (mg/kg)/(nmo/L)
[2]; IV 4 mg/kg
  Cl: 0.0014 (mg/kg)/(nmo/L)/h
  Vss: 0.004 (mg/kg)/(nmo/L)
[2]; IV 1 and 4 mg/kg/adm or oral gavage 3 and 12 mg/kg/adm
  tolerability: well tolerated
[2]; Beagle, IV 1 mg/kg
  AUC(0-inf): 0.089
  AUC(0-t): 0.063
  Tmax: 0.08 h
  half-life: 0.5 h
[2]; Beagle, po 12 mg/kg
  AUC(0-inf): 2.39
  AUC(0-t): 1.91
  Tmax: 0.25 h
  half-life: 3.3 h
[2]; beagle, IV 4 mg/kg
  AUC(0-inf): 1.45
  AUC(0-t): 1.29
  Tmax: 0.08 h
  half-life: 2.5 h
[2]; beagle, po 3 mg/kg
  AUC(0-inf): 0.289
  AUC(0-t): 0.182
  Tmax: 0.25 h
  half-life: 2.6 h
[2]; po 3 mg/kg
  Cl: 0.0052 (mg/kg)/(nmo/L)/h
[2]; po 12 mg/kg
  Cl: 0.0025 (mg/kg)/(nmo/L)/h
